This is an account of results in ChEMBL document CHEMBL1158645, “Antitumor agents 37. The isolation and structural elucidation of isohelenol, a new antileukemic sesquiterpene lactone, and isohelenalin from Helenium microcephalum” (1979).

In general, T/C refers to the ratio of treated to control.

SMILES strings stand for the structures.

The test system of the experiment is P388. Description: In vivo antitumor activity against mouse P388 lymphocytic leukemia at 12.5 mg/kg. It is filed as functional.

As for `C[C@@H]1C[C@H]2OC(=O)C(CO)=C2[C@H](O)[C@]2(C)C(=O)C=C[C@@H]12` [ISOHELENOL], the T/C was 133%.
